Source: paper PMC9629815, “MK256 is a novel CDK8 inhibitor with potent antitumor activity in AML through downregulation of the STAT pathway” (Oncotarget, 2022)

Columns and labels:
[1] = biological target: CDK8/cyclin C (Homo sapiens, UniProt P49336); experiment: SelectScreen kinase profiling, IC50; assay type: biochemical; details: read-out: IC50 against CDK8/cyclin C
Excerpt: (§1) MK256 was synthesized in house. The kinase profiling of MK256 against various targets was done using the SelectScreen Kinase Profiling Services provided by ThermoFisher Scientific (Walham WA, USA). https://www.thermofisher.com/us/en/home/products-and-services/services/custom-services/screening-and-profiling-services/selectscreen-profiling-service/selectscreen-kinase-profiling-service.html.

[2] = biological target: CDK19/cyclin C (Homo sapiens, UniProt Q9BWU1); experiment: SelectScreen kinase profiling, IC50; assay type: biochemical; details: read-out: IC50 against CDK19/cyclin C
Excerpt: as §1

[3] = biological target: CDK9 (Homo sapiens, UniProt P50750); experiment: SelectScreen kinase profiling, IC50; assay type: biochemical
Excerpt: as §1

[4] = biological target: CDK16 (PCTK1)/cyclin Y (Homo sapiens, UniProt Q00536); experiment: CDK panel kinase inhibition; assay type: biochemical; details: read-out: Percentage of inhibition (%)
Chain of CDK16 (PCTK1)/cyclin Y (Q00536 whole entry): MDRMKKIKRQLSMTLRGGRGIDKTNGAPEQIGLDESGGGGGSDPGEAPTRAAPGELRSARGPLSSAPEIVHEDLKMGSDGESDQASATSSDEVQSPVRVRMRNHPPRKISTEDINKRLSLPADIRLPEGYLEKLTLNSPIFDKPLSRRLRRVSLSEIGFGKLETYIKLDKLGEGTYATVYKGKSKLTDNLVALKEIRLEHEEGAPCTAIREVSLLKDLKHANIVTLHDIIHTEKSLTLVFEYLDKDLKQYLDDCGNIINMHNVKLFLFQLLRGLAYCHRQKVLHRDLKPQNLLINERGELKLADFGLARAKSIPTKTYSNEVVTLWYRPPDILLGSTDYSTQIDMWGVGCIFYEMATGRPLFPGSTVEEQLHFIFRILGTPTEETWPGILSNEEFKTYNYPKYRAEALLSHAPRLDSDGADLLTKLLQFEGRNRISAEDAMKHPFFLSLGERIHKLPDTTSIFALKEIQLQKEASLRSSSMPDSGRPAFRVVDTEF
Chain of CDK16 (PCTK1)/cyclin Y (Q8ND76 whole entry partner): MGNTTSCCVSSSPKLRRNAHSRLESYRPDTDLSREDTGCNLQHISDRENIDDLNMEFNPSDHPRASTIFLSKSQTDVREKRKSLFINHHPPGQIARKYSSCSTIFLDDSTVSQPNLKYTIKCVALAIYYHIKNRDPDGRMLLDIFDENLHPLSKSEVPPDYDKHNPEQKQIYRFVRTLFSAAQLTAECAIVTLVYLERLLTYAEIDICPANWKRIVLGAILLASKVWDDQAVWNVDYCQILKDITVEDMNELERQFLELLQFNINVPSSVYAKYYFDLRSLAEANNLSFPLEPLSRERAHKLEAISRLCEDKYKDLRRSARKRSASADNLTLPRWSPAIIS
Excerpt: as §1

[5] = biological target: CDK7/cyclin H/MNAT1 (Homo sapiens, UniProt P50613); experiment: CDK panel kinase inhibition; assay type: biochemical; details: read-out: Percentage of inhibition (%)
Excerpt: as §1

[6] = biological target: CDK1/cyclin B (Homo sapiens, UniProt P06493); experiment: CDK panel kinase inhibition; assay type: biochemical; details: read-out: Percentage of inhibition (%)
Chain of CDK1/cyclin B (P06493 whole entry): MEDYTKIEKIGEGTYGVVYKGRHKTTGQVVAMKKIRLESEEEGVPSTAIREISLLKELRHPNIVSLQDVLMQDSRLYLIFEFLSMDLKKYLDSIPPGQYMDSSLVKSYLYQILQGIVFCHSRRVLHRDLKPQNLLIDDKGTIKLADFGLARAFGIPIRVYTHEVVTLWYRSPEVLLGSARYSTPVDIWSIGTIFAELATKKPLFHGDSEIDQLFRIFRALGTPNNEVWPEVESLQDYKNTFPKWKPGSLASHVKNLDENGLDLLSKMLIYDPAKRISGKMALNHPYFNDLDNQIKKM
Chain of CDK1/cyclin B (P14635 whole entry partner): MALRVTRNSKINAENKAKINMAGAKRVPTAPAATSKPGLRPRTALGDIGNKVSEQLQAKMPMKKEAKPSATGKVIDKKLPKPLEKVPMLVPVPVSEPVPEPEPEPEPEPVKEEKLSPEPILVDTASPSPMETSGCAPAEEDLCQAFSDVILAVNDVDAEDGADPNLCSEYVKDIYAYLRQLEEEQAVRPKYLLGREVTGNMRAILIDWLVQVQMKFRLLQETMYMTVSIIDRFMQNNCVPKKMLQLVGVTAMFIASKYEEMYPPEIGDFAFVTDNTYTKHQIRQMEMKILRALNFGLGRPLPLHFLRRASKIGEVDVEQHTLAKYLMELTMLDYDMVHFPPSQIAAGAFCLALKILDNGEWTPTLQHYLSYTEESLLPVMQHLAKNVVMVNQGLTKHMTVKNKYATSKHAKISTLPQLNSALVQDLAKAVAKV
Excerpt: as §1

[7] = biological target: CDK4/cyclin D3 (Homo sapiens, UniProt P11802); experiment: CDK panel kinase inhibition; assay type: biochemical; details: read-out: Percentage of inhibition (%)
Chain of CDK4/cyclin D3 (P11802 whole entry): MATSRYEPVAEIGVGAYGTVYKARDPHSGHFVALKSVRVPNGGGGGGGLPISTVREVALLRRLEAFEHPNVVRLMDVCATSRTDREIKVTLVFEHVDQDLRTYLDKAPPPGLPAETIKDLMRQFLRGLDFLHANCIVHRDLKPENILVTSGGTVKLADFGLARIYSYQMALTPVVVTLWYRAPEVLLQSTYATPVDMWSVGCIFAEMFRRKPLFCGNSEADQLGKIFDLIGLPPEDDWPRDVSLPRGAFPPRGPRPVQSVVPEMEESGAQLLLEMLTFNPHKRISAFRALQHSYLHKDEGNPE
Chain of CDK4/cyclin D3 (P30281 whole entry partner): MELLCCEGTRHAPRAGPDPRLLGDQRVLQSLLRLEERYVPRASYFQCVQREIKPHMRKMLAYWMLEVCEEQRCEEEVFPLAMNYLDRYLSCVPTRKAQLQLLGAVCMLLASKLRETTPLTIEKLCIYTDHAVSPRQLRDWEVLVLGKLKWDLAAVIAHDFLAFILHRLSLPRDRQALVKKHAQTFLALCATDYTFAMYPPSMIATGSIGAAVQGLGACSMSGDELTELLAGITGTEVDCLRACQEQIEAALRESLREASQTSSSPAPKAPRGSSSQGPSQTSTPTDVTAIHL
Excerpt: as §1

[8] = biological target: CDK4/cyclin D1 (Homo sapiens, UniProt P11802); experiment: CDK panel kinase inhibition; assay type: biochemical; details: read-out: Percentage of inhibition (%)
Chain of CDK4/cyclin D1 (P11802 whole entry): as the sequence (P11802 whole entry) above
Chain of CDK4/cyclin D1 (P24385 whole entry partner): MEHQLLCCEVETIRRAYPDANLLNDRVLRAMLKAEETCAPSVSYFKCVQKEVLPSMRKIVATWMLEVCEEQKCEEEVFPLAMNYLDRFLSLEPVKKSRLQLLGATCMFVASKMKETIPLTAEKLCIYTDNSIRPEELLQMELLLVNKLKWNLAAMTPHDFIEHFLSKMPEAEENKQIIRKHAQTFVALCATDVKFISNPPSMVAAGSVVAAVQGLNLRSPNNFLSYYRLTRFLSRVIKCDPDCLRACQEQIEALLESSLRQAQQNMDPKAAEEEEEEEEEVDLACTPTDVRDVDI
Excerpt: as §1

[9] = biological target: CDK6/cyclin D1 (Homo sapiens, UniProt Q00534); experiment: CDK panel kinase inhibition; assay type: biochemical; details: read-out: Percentage of inhibition (%)
Chain of CDK6/cyclin D1 (Q00534 whole entry): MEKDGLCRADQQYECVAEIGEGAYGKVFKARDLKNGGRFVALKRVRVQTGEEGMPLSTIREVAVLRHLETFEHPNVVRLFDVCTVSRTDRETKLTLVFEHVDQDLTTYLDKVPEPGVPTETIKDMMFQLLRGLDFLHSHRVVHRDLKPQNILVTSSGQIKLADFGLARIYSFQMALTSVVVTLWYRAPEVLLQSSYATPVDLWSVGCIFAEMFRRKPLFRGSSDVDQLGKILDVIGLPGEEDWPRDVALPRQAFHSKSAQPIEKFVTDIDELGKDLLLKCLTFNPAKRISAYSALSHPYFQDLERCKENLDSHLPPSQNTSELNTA
Chain of CDK6/cyclin D1 (P24385 whole entry partner): as the sequence (P24385 whole entry partner) above
Excerpt: as §1

[10] = biological target: CDK14 (PFTK1)/cyclin Y (Homo sapiens, UniProt O94921); experiment: CDK panel kinase inhibition; assay type: biochemical; details: read-out: Percentage of inhibition (%)
Chain of CDK14 (PFTK1)/cyclin Y (O94921 whole entry): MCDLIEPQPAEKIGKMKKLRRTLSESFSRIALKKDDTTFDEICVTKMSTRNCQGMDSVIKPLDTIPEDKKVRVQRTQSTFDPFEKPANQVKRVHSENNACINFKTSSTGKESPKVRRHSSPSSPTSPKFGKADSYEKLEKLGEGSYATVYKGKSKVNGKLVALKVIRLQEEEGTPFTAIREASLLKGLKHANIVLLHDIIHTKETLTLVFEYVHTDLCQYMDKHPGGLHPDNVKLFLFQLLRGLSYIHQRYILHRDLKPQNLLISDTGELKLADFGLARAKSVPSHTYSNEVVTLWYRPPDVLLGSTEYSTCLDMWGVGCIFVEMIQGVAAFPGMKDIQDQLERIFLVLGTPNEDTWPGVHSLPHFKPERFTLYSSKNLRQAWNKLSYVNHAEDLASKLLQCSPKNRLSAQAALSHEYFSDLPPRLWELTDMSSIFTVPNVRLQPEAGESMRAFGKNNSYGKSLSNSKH
Chain of CDK14 (PFTK1)/cyclin Y (Q8ND76 whole entry partner): as the sequence (Q8ND76 whole entry partner) above
Excerpt: as §1

[11] = biological target: CDK9/cyclin T1 (Homo sapiens, UniProt P50750); experiment: CDK panel kinase inhibition; assay type: biochemical; details: read-out: Percentage of inhibition (%)
Excerpt: as §1

[12] = biological target: CDK5 (Inactive) (Homo sapiens, UniProt Q00535); experiment: CDK panel kinase inhibition; assay type: biochemical; details: read-out: Percentage of inhibition (%)
Chain of CDK5 (Inactive) (Q00535 whole entry): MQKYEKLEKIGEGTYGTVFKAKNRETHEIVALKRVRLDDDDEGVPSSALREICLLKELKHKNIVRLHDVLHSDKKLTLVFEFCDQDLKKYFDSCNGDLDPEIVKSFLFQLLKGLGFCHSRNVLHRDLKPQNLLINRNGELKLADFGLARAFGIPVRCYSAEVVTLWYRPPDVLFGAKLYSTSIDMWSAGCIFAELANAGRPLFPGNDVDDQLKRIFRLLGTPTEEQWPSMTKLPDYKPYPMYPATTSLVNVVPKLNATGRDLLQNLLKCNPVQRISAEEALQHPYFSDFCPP
Excerpt: as §1

[13] = biological target: CDK9/cyclin K (Homo sapiens, UniProt P50750); experiment: CDK panel kinase inhibition; assay type: biochemical; details: read-out: Percentage of inhibition (%)
Excerpt: as §1

[14] = biological target: CDK5/p25 (Homo sapiens, UniProt Q00535); experiment: CDK panel kinase inhibition; assay type: biochemical; details: read-out: Percentage of inhibition (%)
Chain of CDK5/p25 (Q00535 whole entry): as above
Chain of CDK5/p25 (Q15078 99-307 partner limits assumed): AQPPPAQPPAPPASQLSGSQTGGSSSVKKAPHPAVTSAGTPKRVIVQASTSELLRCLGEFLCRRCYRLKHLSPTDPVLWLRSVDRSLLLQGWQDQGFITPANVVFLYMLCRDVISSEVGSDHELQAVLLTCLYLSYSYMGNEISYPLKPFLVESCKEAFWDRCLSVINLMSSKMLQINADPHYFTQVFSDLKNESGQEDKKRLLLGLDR
Excerpt: as §1

[15] = biological target: CDK18/cyclin Y (Homo sapiens, UniProt Q07002); experiment: CDK panel kinase inhibition; assay type: biochemical; details: read-out: Percentage of inhibition (%)
Chain of CDK18/cyclin Y (Q07002 whole entry): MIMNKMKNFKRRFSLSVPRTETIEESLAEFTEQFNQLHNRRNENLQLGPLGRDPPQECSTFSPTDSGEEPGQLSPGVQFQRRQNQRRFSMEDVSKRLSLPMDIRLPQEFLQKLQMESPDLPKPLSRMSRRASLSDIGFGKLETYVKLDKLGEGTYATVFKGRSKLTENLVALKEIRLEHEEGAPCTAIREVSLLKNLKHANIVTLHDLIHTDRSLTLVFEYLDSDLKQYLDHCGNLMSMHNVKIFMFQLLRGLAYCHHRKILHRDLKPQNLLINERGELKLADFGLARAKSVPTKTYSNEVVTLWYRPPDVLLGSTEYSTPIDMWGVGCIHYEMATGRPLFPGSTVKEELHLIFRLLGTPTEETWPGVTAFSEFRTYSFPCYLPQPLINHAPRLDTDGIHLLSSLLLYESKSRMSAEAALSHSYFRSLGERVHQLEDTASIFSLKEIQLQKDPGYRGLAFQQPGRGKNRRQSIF
Chain of CDK18/cyclin Y (Q8ND76 whole entry partner): as the sequence (Q8ND76 whole entry partner) above
Excerpt: as §1

[16] = test system: CCL2 mRNA in KG-1 cells; experiment: Real-time RT-PCR of CCL2 mRNA; assay type: cell-based
Protocol: (§2) Total RNA from the various cell lines was isolated using the RNeasy extraction method (Qiagen, Valencia, CA, USA). First-strand cDNA was synthesized from total RNA by iScript cDNA synthesis (Bio-Rad, Hercules, CA, USA) according to the manufacturer’s instructions. Taqman RT–PCR analysis was performed on cDNA in a 384-well plate, using a Prism 7900HT Real-Time PCR System (Applied Biosystems, Foster City, CA, USA). Primers and Taqman probes were purchased from Applied Biosystems. The expression of target genes MCL1 (Hs03043899_m1, Thermo fisher) and CCL2 (Hs00234140_m1, Thermo fisher) in each sample was assayed in triplicate and normalized to human GUSB for mRNA expression analysis. An unpaired t test was used to calculate statistical significance.

[17] = test system: CCL2 mRNA in MOLM-14 cells; experiment: Real-time RT-PCR of CCL2 mRNA; assay type: cell-based
Protocol: as §2

[18] = test system: p-STATs, MCL-1, BCL-2, cleaved Parp, cleaved Caspase 3 in MOLM-14 cells; experiment: Western blot of STAT pathway and apoptosis markers in MOLM-14 cells; assay type: cell-based; set-up: targeted p-STATs and MCL-1 levels / expression of BCL-2: dose or concentration left out as unconfirmed
Protocol: For the in vitro western blot study, MV-4-11 and MOLM-14 cells were plated (6-well) at 5 × 10^5 cells per well with medium containing 1% FBS overnight. MK-256 was added in different concentrations at different time points. […] Total protein concentration was measured using the Pierce BCA protein Assay Kit (23227, Thermo Fisher Scientific). Proteins were separated on SDS-PAGE and transferred to Nitrocellulose membrane.

[19] = biological target: CYR2C8 (Homo sapiens, UniProt P10632); experiment: Cytochrome P450 inhibition assay; assay type: in vitro ADME; details: 50 uM

Question: Which IC50 [1] does the source give for `Nc1nccc2c(Br)cc3cc(C(=O)O)ccc3c12` [MK256] here?
Answer: The IC50 was 2.5 nM.

Question: What about the IC50 [2] of the same compound?
Answer: The IC50 was 3.3 nM.

Question: What about the “fold reduction of activity against CDK9 in comparison to CDK8” value ([3]; CDK9 IC50 vs CDK8 IC50) of the same compound?
Answer: Its value is “approximately 40 fold”.

Question: What about the IC50 ([3]; read-out: IC50 against CDK9) of the same compound?
Answer: The IC50 was 105 nM.

Question: What about the inhibition at 0.2 µM ([4]; 200 nM) of the same compound?
Answer: The inhibition at 0.2 µM was 1%.

Question: What about the inhibition at 10 µM ([4]; 10 μM) of the same compound?
Answer: The inhibition at 10 µM was 67%.

Question: What about the inhibition at 0.2 µM ([5]; 200 nM) of the same compound?
Answer: Its inhibition at 0.2 µM is 9%.

Question: What about the inhibition at 10 µM ([5]; 10 μM) of the same compound?
Answer: The inhibition at 10 µM was 54%.

Question: And the inhibition at 0.2 µM ([6]; 200 nM)?
Answer: The inhibition at 0.2 µM was 34%.

Question: And the inhibition at 10 µM ([6]; 10 μM)?
Answer: The inhibition at 10 µM was 97%.

Question: And the inhibition at 0.2 µM ([7]; 200 nM)?
Answer: Its inhibition at 0.2 µM is -3%.

Question: What about the inhibition at 10 µM ([7]; 10 μM) of the same compound?
Answer: Its inhibition at 10 µM is 23%.

Question: What about the inhibition at 0.2 µM ([8]; 200 nM) of the same compound?
Answer: Its inhibition at 0.2 µM is 2%.

Question: And the inhibition at 10 µM ([8]; 10 μM)?
Answer: The inhibition at 10 µM was 23%.

Question: And the inhibition at 0.2 µM ([9]; 200 nM)?
Answer: Its inhibition at 0.2 µM is -12%.

Question: What about the inhibition at 10 µM ([9]; 10 μM) of the same compound?
Answer: The inhibition at 10 µM was 23%.

Question: What about the inhibition at 0.2 µM ([10]; 200 nM) of the same compound?
Answer: Its inhibition at 0.2 µM is 23%.

Question: And the inhibition at 10 µM ([10]; 10 μM)?
Answer: The inhibition at 10 µM was 97%.

Question: And the inhibition at 0.2 µM ([11]; 200 nM)?
Answer: The inhibition at 0.2 µM was 82%.

Question: And the inhibition at 10 µM ([11]; 10 μM)?
Answer: Its inhibition at 10 µM is 98%.

Question: And the inhibition at 0.2 µM ([12]; 200 nM)?
Answer: The inhibition at 0.2 µM was 7%.

Question: And the inhibition at 10 µM ([12]; 10 μM)?
Answer: Its inhibition at 10 µM is 70%.

Question: What about the inhibition at 0.2 µM ([13]; 200 nM) of the same compound?
Answer: Its inhibition at 0.2 µM is 76%.

Question: And the inhibition at 10 µM ([13]; 10 μM)?
Answer: Its inhibition at 10 µM is 101%.

Question: And the inhibition at 0.2 µM ([14]; 200 nM)?
Answer: The inhibition at 0.2 µM was 2%.

Question: What about the inhibition at 10 µM ([14]; 10 μM) of the same compound?
Answer: The inhibition at 10 µM was 89%.

Question: And the inhibition at 0.2 µM ([15]; 200 nM)?
Answer: The inhibition at 0.2 µM was 37%.

Question: What about the inhibition at 10 µM ([15]; 10 μM) of the same compound?
Answer: The inhibition at 10 µM was 98%.

Question: And the “expression of CCL2 downregulated to” value ([16]; 300 nM)?
Answer: Its value is “approximately 50%”.

Question: What about the “expression of CCL2 downregulated to” value ([16]; 1 uM) of the same compound?
Answer: The value was ~40%.

Question: What about the “mRNA level of CCL2” value ([17]; 1 uM) of the same compound?
Answer: Its value is “abolished”.

Question: What about the mrna remaining at 0.3 µM ([17]; Homo sapiens, MOLM-14, 300 nM, read-out: mRNA level of CCL2 (remaining)) of the same compound?
Answer: The mrna remaining at 0.3 µM was ~5%.

Question: And the “levels of cleaved Parp and cleaved Caspase 3” value ([18]; 30 nM to 3 mM, 48 hr)?
Answer: The value was “dose-dependent upregulation”.

Question: And the “p-levels of STATs, time course” value ([18]; 300 nM, 4 hrs and 24 hrs)?
Answer: Its value is “further downregulated in a time-dependent manner”.

Question: What about the “p-STAT1 (S727), p-STAT3(S727), p-STAT5(S726) levels” value ([18]; 2-hrs, various concentrations) of the same compound?
Answer: The value was “dose-dependent inhibitions”.

Question: And the MCL-1 level ([18]; 2 hrs)?
Answer: Its MCL-1 level is “downregulated”.

Question: And the “expression of BCL-2” value ([18]; 48 hr)?
Answer: Its value is “unexpected upregulation”.

Question: What about the “targeted p-STATs and MCL-1 levels” value ([18]; 48 hr) of the same compound?
Answer: Its value is “dose-dependent inhibition”.

Question: What about the “cytochrome P450 inhibition” value [19] of the same compound?
Answer: The value was “no inhibition”.
